Experimental data reported in the supplement of paper PMC6315032.

Assays:
Assay in all cases: apparent dissociation constant (pKDapp, Kinobeads competition, Cheng-Prusoff corrected) (-log10 M); higher = tighter binding
Conditions in all cases: affinity matrix / lysate: Kinobeads, mixed HEK293/K-562/placenta lysate
MAP3K11 = MAP3K11 (UniProt Q16584)
MAPK10 = MAPK10 (UniProt P53779)
CSNK1G1 = CSNK1G1 (UniProt Q9HCP0)
EIF2AK2 = EIF2AK2 (UniProt P19525)
TLK1 = TLK1 (UniProt Q9UKI8)
LCK = LCK (UniProt P06239)
MAP3K10 = MAP3K10 (UniProt Q02779)
Sequence of MAP3K10 (Q02779 whole entry, looked up): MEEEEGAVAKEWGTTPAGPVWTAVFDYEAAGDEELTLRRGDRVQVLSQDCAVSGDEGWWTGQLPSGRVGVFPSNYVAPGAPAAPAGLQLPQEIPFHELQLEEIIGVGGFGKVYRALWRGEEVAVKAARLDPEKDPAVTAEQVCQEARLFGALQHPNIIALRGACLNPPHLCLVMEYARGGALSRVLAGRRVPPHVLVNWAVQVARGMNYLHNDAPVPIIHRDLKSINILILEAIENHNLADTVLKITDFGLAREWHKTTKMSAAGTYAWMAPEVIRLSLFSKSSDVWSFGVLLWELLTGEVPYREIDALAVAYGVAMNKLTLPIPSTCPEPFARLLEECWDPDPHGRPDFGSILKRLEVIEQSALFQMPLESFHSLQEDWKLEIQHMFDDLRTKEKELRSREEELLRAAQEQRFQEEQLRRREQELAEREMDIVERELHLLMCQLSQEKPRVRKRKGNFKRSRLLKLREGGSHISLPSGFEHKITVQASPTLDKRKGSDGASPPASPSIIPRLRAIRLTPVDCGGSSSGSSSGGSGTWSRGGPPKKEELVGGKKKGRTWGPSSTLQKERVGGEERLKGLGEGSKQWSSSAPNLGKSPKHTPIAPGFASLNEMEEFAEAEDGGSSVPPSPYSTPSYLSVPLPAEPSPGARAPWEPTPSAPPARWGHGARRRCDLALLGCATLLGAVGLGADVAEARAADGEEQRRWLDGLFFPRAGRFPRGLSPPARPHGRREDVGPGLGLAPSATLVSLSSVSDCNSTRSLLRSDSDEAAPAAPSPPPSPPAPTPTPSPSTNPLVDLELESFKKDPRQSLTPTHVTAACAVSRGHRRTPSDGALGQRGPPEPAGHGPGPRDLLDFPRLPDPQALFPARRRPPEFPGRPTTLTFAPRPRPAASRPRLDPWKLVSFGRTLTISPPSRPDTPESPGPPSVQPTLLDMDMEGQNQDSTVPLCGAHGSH

ACVRL1 = ACVRL1 (UniProt P37023)
Sequence of ACVRL1 (P37023 whole entry): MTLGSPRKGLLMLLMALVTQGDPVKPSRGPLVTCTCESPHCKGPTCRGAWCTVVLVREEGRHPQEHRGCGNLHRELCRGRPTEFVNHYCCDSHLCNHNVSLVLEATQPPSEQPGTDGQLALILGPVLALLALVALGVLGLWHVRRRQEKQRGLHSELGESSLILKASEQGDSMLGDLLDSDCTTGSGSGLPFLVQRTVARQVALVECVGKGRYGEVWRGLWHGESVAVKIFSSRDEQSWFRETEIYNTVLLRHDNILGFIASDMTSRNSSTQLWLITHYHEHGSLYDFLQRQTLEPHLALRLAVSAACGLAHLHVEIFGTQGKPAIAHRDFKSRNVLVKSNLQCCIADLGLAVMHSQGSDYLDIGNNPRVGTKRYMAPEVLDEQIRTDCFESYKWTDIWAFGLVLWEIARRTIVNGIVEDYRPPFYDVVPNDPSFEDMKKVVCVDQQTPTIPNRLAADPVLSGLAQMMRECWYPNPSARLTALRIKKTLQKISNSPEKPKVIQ

DYRK1B = DYRK1B (UniProt Q9Y463)
Sequence of DYRK1B (Q9Y463 whole entry, looked up): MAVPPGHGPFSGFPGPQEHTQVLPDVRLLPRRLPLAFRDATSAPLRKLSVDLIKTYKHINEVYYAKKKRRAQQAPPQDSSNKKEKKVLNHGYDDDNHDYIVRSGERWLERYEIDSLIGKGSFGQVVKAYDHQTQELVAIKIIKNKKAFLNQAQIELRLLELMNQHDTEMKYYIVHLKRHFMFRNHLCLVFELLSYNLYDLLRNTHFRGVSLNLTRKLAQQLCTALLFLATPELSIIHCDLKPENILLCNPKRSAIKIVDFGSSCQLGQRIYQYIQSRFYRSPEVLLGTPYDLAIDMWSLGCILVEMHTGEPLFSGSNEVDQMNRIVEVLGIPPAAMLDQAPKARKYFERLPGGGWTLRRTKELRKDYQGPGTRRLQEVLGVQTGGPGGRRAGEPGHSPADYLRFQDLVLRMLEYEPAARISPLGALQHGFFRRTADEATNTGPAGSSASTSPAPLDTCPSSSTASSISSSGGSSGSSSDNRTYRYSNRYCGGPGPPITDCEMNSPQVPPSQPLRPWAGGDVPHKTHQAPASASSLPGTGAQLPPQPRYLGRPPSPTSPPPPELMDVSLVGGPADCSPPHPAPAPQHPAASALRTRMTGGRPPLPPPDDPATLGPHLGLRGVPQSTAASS

PRKACA = PRKACA (UniProt P17612)
RIPK4 = RIPK4 (UniProt P57078)
SGK1 = SGK1 (UniProt O00141)
MAP4K1 = MAP4K1 (UniProt Q92918)
DYRK2 = DYRK2 (UniProt Q92630)
Sequence of DYRK2 (Q92630 whole entry): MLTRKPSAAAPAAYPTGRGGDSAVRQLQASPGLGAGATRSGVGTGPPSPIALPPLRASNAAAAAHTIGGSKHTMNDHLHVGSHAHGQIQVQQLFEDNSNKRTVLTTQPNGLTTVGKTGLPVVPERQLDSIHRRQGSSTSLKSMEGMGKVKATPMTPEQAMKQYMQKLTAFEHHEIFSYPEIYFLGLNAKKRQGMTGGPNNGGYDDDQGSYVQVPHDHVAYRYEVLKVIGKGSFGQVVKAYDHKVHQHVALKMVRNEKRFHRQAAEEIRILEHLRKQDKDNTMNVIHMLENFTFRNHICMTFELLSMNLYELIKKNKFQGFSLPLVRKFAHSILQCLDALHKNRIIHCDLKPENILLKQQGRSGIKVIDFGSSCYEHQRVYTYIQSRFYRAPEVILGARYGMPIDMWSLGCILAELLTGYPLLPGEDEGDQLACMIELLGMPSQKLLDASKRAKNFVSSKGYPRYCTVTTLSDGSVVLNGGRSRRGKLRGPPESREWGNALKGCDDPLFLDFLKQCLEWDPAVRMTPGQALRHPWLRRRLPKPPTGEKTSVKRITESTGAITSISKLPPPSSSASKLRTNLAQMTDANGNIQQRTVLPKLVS

SIK1 = SIK1 (UniProt P57059)
Sequence of SIK1 (P57059 whole entry): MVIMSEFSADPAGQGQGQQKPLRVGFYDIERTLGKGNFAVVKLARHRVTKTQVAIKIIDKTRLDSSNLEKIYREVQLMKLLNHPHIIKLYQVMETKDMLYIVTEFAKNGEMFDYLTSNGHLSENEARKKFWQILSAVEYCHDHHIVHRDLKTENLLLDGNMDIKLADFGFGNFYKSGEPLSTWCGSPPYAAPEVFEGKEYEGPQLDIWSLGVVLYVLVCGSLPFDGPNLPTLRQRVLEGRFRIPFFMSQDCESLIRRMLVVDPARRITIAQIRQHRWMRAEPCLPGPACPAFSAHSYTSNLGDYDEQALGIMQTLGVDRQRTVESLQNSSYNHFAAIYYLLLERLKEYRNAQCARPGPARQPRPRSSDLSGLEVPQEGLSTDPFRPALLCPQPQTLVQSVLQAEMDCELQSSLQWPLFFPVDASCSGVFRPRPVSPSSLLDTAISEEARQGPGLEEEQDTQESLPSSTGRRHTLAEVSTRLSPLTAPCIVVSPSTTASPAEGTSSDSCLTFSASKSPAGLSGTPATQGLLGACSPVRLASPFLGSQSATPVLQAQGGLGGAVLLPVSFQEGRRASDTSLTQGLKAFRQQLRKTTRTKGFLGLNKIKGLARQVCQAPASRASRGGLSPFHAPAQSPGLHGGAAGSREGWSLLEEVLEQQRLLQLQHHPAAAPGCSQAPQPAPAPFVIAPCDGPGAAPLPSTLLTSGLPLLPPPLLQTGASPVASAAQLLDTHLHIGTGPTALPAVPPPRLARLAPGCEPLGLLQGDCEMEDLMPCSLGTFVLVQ

Sequence of CSNK1G1 (Q9HCP0 whole entry, looked up): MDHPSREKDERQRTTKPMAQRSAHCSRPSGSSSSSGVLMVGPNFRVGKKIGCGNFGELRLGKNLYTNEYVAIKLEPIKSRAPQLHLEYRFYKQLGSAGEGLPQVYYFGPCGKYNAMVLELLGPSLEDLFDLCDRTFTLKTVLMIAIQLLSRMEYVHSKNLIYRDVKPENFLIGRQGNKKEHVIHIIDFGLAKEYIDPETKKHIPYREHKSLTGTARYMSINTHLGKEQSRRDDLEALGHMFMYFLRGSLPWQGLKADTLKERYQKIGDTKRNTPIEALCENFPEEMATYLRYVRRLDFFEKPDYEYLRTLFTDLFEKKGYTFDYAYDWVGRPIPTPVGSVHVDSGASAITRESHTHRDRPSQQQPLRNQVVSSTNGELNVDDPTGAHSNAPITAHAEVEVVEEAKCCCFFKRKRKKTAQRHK
Sequence of TLK1 (Q9UKI8 whole entry): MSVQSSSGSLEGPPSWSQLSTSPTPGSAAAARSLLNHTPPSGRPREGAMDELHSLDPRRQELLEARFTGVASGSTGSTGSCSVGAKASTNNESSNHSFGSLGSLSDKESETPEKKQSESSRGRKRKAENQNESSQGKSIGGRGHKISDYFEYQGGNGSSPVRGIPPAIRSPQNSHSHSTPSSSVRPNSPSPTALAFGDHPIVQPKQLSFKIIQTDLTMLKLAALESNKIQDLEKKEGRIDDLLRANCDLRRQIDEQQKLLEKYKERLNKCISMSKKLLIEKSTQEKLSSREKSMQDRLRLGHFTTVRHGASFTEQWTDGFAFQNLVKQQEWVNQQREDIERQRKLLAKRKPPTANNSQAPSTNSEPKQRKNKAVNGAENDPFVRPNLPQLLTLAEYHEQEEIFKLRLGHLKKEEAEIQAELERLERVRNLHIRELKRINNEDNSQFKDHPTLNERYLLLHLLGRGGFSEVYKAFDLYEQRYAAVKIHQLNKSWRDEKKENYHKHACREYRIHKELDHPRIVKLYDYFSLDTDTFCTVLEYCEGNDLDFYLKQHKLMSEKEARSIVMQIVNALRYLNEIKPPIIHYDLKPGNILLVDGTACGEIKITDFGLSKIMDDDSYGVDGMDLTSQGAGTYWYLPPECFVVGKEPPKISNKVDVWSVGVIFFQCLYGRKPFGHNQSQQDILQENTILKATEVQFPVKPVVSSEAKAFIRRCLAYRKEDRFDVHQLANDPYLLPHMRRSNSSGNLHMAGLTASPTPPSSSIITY

apparent dissociation constant (-log10 M) (MAP3K11): < 6
apparent dissociation constant (-log10 M) (MAPK10): < 6
apparent dissociation constant (-log10 M) (CSNK1G1): < 6
apparent dissociation constant (-log10 M) (EIF2AK2): < 6
apparent dissociation constant (-log10 M) (TLK1): < 6
apparent dissociation constant (-log10 M) (LCK): < 6
apparent dissociation constant (-log10 M) (MAP3K10): < 6
apparent dissociation constant (-log10 M) (ACVRL1): < 6
apparent dissociation constant (-log10 M) (DYRK1B): < 6
apparent dissociation constant (-log10 M) (PRKACA): < 6
apparent dissociation constant (-log10 M) (RIPK4): < 6
apparent dissociation constant (-log10 M) (SGK1): < 6
apparent dissociation constant (-log10 M) (MAP4K1): < 6
apparent dissociation constant (-log10 M) (DYRK2): < 6
apparent dissociation constant (-log10 M) (SIK1): < 6
SMILES: CCNC(=O)Nc1ccc(-c2nc(N3CCOC[C@@H]3C)c3c(n2)C(C)(C)S(=O)(=O)C3)cc1 [CZ415]
